Measured values taken from patent US20210115040A1, “OGA INHIBITOR COMPOUNDS” (Janssen Pharmaceutica NV, priority 2018, published 2021).

Biological target: T1, OGA (Homo sapiens, UniProt O60502)
T1 construct: HEK293 cells inducible for P301L mutant human Tau (isoform 2N4R) were established at Janssen; endogenous in cells; host or cells: HEK293 cells inducible for P301L mutant human Tau (2N4R)
T1 sequence (O60502 1-916): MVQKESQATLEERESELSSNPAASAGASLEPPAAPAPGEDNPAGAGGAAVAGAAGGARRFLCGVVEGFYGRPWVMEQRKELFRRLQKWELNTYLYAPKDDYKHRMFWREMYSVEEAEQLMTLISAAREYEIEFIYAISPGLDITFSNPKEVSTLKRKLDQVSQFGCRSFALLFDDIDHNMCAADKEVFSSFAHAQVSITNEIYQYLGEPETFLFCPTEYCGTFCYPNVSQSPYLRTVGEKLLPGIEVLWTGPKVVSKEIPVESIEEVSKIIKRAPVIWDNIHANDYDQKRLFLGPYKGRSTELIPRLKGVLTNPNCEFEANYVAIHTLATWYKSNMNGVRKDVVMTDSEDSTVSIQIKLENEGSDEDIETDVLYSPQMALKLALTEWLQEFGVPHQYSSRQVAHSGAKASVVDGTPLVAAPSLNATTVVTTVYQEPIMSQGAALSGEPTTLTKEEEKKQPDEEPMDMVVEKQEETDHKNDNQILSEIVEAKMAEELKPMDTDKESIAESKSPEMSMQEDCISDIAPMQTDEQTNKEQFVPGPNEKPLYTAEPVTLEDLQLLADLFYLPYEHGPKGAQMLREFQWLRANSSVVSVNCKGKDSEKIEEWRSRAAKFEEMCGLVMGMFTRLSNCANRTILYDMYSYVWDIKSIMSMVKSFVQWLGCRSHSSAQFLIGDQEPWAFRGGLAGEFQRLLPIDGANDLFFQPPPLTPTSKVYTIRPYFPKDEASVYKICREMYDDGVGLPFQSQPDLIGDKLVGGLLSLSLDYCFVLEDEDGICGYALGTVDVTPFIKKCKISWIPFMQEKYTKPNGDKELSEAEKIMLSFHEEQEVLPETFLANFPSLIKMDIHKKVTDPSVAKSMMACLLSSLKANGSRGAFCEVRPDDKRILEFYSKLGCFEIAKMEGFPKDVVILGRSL
Test: OGA cellular assay (ICC detection of O-GlcNAcylated proteins in HEK293 cells inducible for P301L mutant human Tau)
Format: cell-based
Conditions: HEK293, HEK293 cells inducible for P301L mutant human Tau, maximum = Thiamet G 200 uM
Protocol: HEK293 cells inducible for P301L mutant human Tau (isoform 2N4R) were established at Janssen. Thiamet-G was used for both plate validation (high control) and as reference compound (reference EC50 assay validation). OGA inhibition is evaluated through the immunocytochemical (ICC) detection of O-GlcNAcylated proteins by the use of a monoclonal antibody (CTD110.6; Cell Signaling, #9875) detecting 0-GlcNAcylated residues as previously described (Dorfmueller et al. 2010 Chemistry & biology, 17:1250). Inhibition of OGA will result in an increase of O-GlcNAcylated protein levels resulting in an increased signal in the experiment. Cell nuclei are stained with Hoechst to give a cell culture quality control and a rough estimate of immediate compounds toxicity, if any. ICC pictures are imaged with a Perkin Elmer Opera Phenix plate microscope and quantified with the provided software Perkin Elmer Harmony 4.1.
Cells were propagated in DMEM high Glucose (Sigma, #D5796) following standard procedures. 2 days before the cell assay cells are split, counted and seeded in Poly-D-Lysine (PDL) coated 96-wells (Greiner, #655946) plate at a cell density of 12,000 cells per cm^2 (4,000 cells per well) in 100 μl of Assay Medium (Low Glucose medium is used to reduce basal levels of GlcNAcylation) (Park et al. 2014 The Journal of biological chemistry 289:13519). At the day of compound test medium from assay plates was removed and replenished with 90 μl of fresh Assay Medium. 10 μl of compounds at a 10fold final concentration were added to the wells. Plates were centrifuged shortly before incubation in the cell incubator for 6 hours. DMSO concentration was set to 0.2%. Medium is discarded by applying vacuum. For staining of cells medium was removed and cells washed once with 100 μl D-PBS (Sigma, #D8537). From next step onwards unless other stated assay volume was always 50 μl and incubation was performed without agitation and at room temperature. Cells were fixed in 50 μl of a 4% paraformaldehyde (PFA, Alpha aesar, #043368) PBS solution for 15 minutes at room temperature. […] Before analysis samples were washed 2 times manually for 5 minutes in ICC base buffer.
Imaging is performed using Perkin Elmer Phenix Opera using a water 20× objective and recording 9 fields per well. Intensity readout at 488 nm is used as a measure of O-GlcNAcylation level of total proteins in wells. To assess potential toxicity of compounds nuclei were counted using the Hoechst staining. IC50-values are calculated using parametric non-linear regression model fitting. As a maximum inhibition Thiamet G at a 200 uM concentration is present on each plate. In addition, a concentration response of Thiamet G is calculated on each plate.

Structure (SMILES) | Emax [%]
Cc1cc(C[C@@H]2CCN(C(C)c3ccc4sc(C)nc4n3)C2)nc(C)n1 (single isomer, unassigned) [Compound 72] | 18
Cc1cc([C@H]2CCCN([C@@H](C)c3nc4nc(C)sc4cc3F)C2)cc(C)n1 (single isomer, unassigned) [Compound 87] | 79

The remaining lines, values ahead:

Emax [%] | Structure (SMILES)
75 | Cc1cc([C@H]2CCCN(C(C)c3nc4nc(C)sc4cc3F)C2)cc(C)n1 (single isomer, unassigned) [Compound 85]
12 | Cc1cc([C@H]2CCCN([C@H](C)c3nc4nc(C)sc4cc3F)C2)cc(C)n1 (single isomer, unassigned) [Compound 86]

Same assay, conditions: HEK293 cells inducible for P301L mutant human Tau, 6 hours incubation

Cellular hOGA; pEC50 | Structure (SMILES)
<6 | Cc1cc(O[C@@H]2CCN(C(C)c3ccc4sc(C)nc4n3)C2)cc(C)n1 (single isomer, unassigned) [Compound 74]

Same assay, conditions: HEK293 cells inducible for P301L mutant human Tau, 6 hours incubation; read-out: Cellular hOGA; pEC50 (converted)

Structure (SMILES) | EC50 [nM]
Cc1cc(C[C@@H]2CCN(C(C)c3ccc4sc(C)nc4n3)C2)nc(C)n1 (single isomer, unassigned) [Compound 72] | > 1000
Cc1cc([C@H]2CCCN([C@@H](C)c3nc4nc(C)sc4cc3F)C2)cc(C)n1 (single isomer, unassigned) [Compound 87] | 3.16

Now from value to molecule:

EC50 [nM] | Structure (SMILES)
10 | Cc1cc([C@H]2CCCN(C(C)c3nc4nc(C)sc4cc3F)C2)cc(C)n1 (single isomer, unassigned) [Compound 85]
> 1000 | Cc1cc([C@H]2CCCN([C@H](C)c3nc4nc(C)sc4cc3F)C2)cc(C)n1 (single isomer, unassigned) [Compound 86]

Same assay, conditions: HEK293 cells inducible for P301L mutant human Tau, maximum = Thiamet G 200 uM

Cellular Emax (%) | Structure (SMILES)
−4 | Cc1cc(O[C@@H]2CCN(C(C)c3ccc4sc(C)nc4n3)C2)cc(C)n1 (single isomer, unassigned) [Compound 74]

Biological target: T2, recombinant human Meningioma Expressed Antigen 5 (MGEA5), also referred to as O-GlcNAcase (OGA) (Homo sapiens, UniProt O60502)
T2 construct: Full length OGA enzyme was purchased at OriGene (cat #TP322411); purchased OriGene TP322411
T2 sequence (O60502 1-916): T1 sequence (O60502 1-916)
Test: OGA biochemical assay (inhibition of FM-GlcNAc hydrolysis, fluorescence)
Conditions: FM-GlcNAc substrate, 6 h at room temperature, read-out: Enzymatic hOGA, pIC50 (converted)
From the text: The assay is based on the inhibition of the hydrolysis of fluorescein mono-β-D-N-Acetyl-Glucosamine (FM-GlcNAc) (Mariappa et al. 2015, Biochem J 470:255) by the recombinant human Meningioma Expressed Antigen 5 (MGEA5), also referred to as O-GlcNAcase (OGA). The hydrolysis FM-GlcNAc (Marker Gene technologies, cat #M1485) results in the formation of β-D-N-glucosamineacetate and fluorescein. The fluorescence of the latter can be measured at excitation wavelength 485 nm and emission wavelength 538 nm. An increase in enzyme activity results in an increase in fluorescence signal. Full length OGA enzyme was purchased at OriGene (cat #TP322411). The enzyme was stored in 25 mM Tris.HCl, pH 7.3, 100 mM glycine, 10% glycerol at −20° C. Thiamet G and GlcNAcStatin were tested as reference compounds (Yuzwa et al. 2008 Nature Chemical Biology 4:483; Yuzwa et al. 2012 Nature Chemical Biology 8:393). The assay was performed in 200 mM Citrate/phosphate buffer supplemented with 0.005% Tween-20. 35.6 g Na2HPO4 2H2O (Sigma, #C0759) were dissolved in 1 L water to obtain a 200 mM solution. 19.2 g citric acid (Merck, #1.06580) was dissolved in 1 L water to obtain a 100 mM solution. pH of the sodiumphosphate solution was adjusted with the citric acid solution to 7.2. The buffer to stop the reaction consists of a 500 mM Carbonate buffer, pH 11.0. 734 mg FM-GlcNAc were dissolved in 5.48 mL DMSO to obtain a 250 mM solution and was stored at −20° C. OGA was used at a 2 nM concentration and FM-GlcNAc at a 100 uM final concentration. Dilutions were prepared in assay buffer.
50 nl of a compound dissolved in DMSO was dispensed on Black Proxiplate™ 384 Plus Assay plates (Perkin Elmer, #6008269) and 3 μl fl-OGA enzyme mix added subsequently. Plates were pre-incubated for 60 min at room temperature and then 2 μl FM-GlcNAc substrate mix added. […] Plates were briefly centrifuged for 1 min at 1000 rpm and incubate at room temperature for 6 h. To stop the reaction 5 μl STOP buffer were added and plates centrifuge again 1 min at 1000 rpm. Fluorescence was quantified in the Thermo Scientific Fluoroskan Ascent or the PerkinElmer EnVision with excitation wavelength 485 nm and emission wavelength 538 nm.
For analysis a best-fit curve is fitted by a minimum sum of squares method. From this an IC50 value and Hill coefficient was obtained. High control (no inhibitor) and low control (saturating concentrations of standard inhibitor) were used to define the minimum and maximum values.

Structure (SMILES) | IC50 [nM]
Cc1cc(C[C@@H]2CCN(C(C)c3ccc4sc(C)nc4n3)C2)nc(C)n1 (single isomer, unassigned) [Compound 72] | 316
Cc1cc(O[C@@H]2CCN(C(C)c3ccc4sc(C)nc4n3)C2)cc(C)n1 (single isomer, unassigned) [Compound 74] | 158
Cc1cc([C@H]2CCCN([C@@H](C)c3nc4nc(C)sc4cc3F)C2)cc(C)n1 (single isomer, unassigned) [Compound 87] | 2.51

The next lines start with the values.

IC50 [nM] | Structure (SMILES)
3.98 | Cc1cc([C@H]2CCCN(C(C)c3nc4nc(C)sc4cc3F)C2)cc(C)n1 (single isomer, unassigned) [Compound 85]
1580 | Cc1cc([C@H]2CCCN([C@H](C)c3nc4nc(C)sc4cc3F)C2)cc(C)n1 (single isomer, unassigned) [Compound 86]

Same assay, conditions: FM-GlcNAc substrate, maximal effect

Enzymatic Emax (%) | Structure (SMILES)
97 | Cc1cc(O[C@@H]2CCN(C(C)c3ccc4sc(C)nc4n3)C2)cc(C)n1 (single isomer, unassigned) [Compound 74]

Same assay, conditions: FM-GlcNAc substrate, maximal effect, read-out: Enzymatic Emax (%)

Structure (SMILES) | Emax [%]
Cc1cc(C[C@@H]2CCN(C(C)c3ccc4sc(C)nc4n3)C2)nc(C)n1 (single isomer, unassigned) [Compound 72] | 95
Cc1cc([C@H]2CCCN([C@@H](C)c3nc4nc(C)sc4cc3F)C2)cc(C)n1 (single isomer, unassigned) [Compound 87] | 99

The remaining lines, values ahead:

Emax [%] | Structure (SMILES)
100 | Cc1cc([C@H]2CCCN(C(C)c3nc4nc(C)sc4cc3F)C2)cc(C)n1 (single isomer, unassigned) [Compound 85]
95 | Cc1cc([C@H]2CCCN([C@H](C)c3nc4nc(C)sc4cc3F)C2)cc(C)n1 (single isomer, unassigned) [Compound 86]
